Data: the supplement of paper PMC10307832

Assays:
Test in all cases: relative viability (nuclei count vs DMSO), 5 days (fraction); higher = more cells survive
XMD8-85 = compound: CN1CCN(CC1)C2=CC(=C(C=C2)NC3=NC=C4C(=N3)N(C5=CC=CC=C5C(=O)N4C)C)OC [XMD8-85]
Method in brief: (§1)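 Viability here means nuclei in treated wells divided by nuclei in vehicle wells, reported as the median across plates. Only plates with control CV below 25% and at least one doubling passed. Lung cancer cell lines in 1536-well plates were exposed to five √10-spaced library-drug doses for 5 days and counted from 4× Hoechst images in MetaXpress.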

4EGI-1 = compound: O=C(O)C(Cc1ccccc1[N+](=O)[O-])=NNc1nc(-c2ccc(Cl)c(Cl)c2)cs1 (mixture of isomers) [4EGI-1]
Method in brief: as §1

4EGI-1 + Pictilisib = compound: O=C(O)C(Cc1ccccc1[N+](=O)[O-])=NNc1nc(-c2ccc(Cl)c(Cl)c2)cs1 (mixture of isomers) [4EGI-1] + CS(=O)(=O)N1CCN(Cc2cc3nc(-c4cccc5[nH]ncc45)nc(N4CCOCC4)c3s2)CC1 [Pictilisib] (partner 1 µM)
Method in brief: (§2)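 One day after seeding in 1536-well plates, lung cancer cell lines were dosed by pin tool. Dosing was either single-drug or a fixed anchor-drug dose plus five library-drug doses (not always all listed) in √10 steps. After 5 days, nuclei were stained in one fix-and-stain step and counted on 4× images, and relative viability is the nuclei count of treated wells over that of vehicle wells, given as the median of duplicate plates.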

4EGI-1 + Alpelisib = compound: O=C(O)C(Cc1ccccc1[N+](=O)[O-])=NNc1nc(-c2ccc(Cl)c(Cl)c2)cs1 (mixture of isomers) [4EGI-1] + Cc1nc(NC(=O)N2CCC[C@H]2C(N)=O)sc1-c1ccnc(C(C)(C)C(F)(F)F)c1 [Alpelisib] (partner 2 µM)
Method in brief: as §2

NCI-H1792 was tested. Which relative viability (XMD8-85; 0.253 µM) did it give?
The relative viability was 0.904.

What about the relative viability (XMD8-85; 2.53 µM) of the same cell line?
The relative viability was 1.14.

What about the relative viability (XMD8-85; 8 µM) of the same cell line?
The relative viability was 0.704.

And the relative viability (4EGI-1; 0.5 µM)?
Its relative viability is 0.99.

What about the relative viability (4EGI-1; 1.581 µM) of the same cell line?
Its relative viability is 1.1.

What about the relative viability (4EGI-1; 5 µM) of the same cell line?
Its relative viability is 0.941.

What about the relative viability (4EGI-1; 15.81 µM) of the same cell line?
Its relative viability is 0.903.

What about the relative viability (4EGI-1; 50 µM) of the same cell line?
Its relative viability is 0.608.

What about the relative viability (4EGI-1 + Pictilisib; first compound 0.5 µM) of the same cell line?
The relative viability was 0.321.

And the relative viability (4EGI-1 + Pictilisib; first compound 1.581 µM)?
The relative viability was 0.209.

What about the relative viability (4EGI-1 + Pictilisib; first compound 5 µM) of the same cell line?
The relative viability was 0.257.

What about the relative viability (4EGI-1 + Pictilisib; first compound 15.81 µM) of the same cell line?
Its relative viability is 0.214.

What about the relative viability (4EGI-1 + Pictilisib; first compound 50 µM) of the same cell line?
The relative viability was 0.145.

And the relative viability (4EGI-1 + Alpelisib; first compound 0.5 µM)?
Its relative viability is 0.765.

And the relative viability (4EGI-1 + Alpelisib; first compound 1.581 µM)?
The relative viability was 0.684.

What about the relative viability (4EGI-1 + Alpelisib; first compound 5 µM) of the same cell line?
Its relative viability is 0.667.

What about the relative viability (4EGI-1 + Alpelisib; first compound 15.81 µM) of the same cell line?
The relative viability was 0.533.

And the relative viability (4EGI-1 + Alpelisib; first compound 50 µM)?
The relative viability was 0.469.
